Reference: patent US20250243196A1, “CITRON KINASE INHIBITORS” (The Cleveland Clinic Foundation, priority 2021, published 2025)

How the values were obtained:
[1] = target: ALK6(h) (Homo sapiens (Human), UniProt O00238); assay: KinaseProfiler panel; format: biochemical; parameters: dose or concentration left out as unconfirmed; details: activity remaining
[2] = target: CDK5/p35(h) (Homo sapiens (Human), UniProt Q00535); assay: KinaseProfiler panel; format: biochemical; parameters: dose or concentration left out as unconfirmed; details: activity remaining
[3] = target: MST2(h) (Homo sapiens (Human), UniProt Q13188); assay: KinaseProfiler panel; format: biochemical; parameters: dose or concentration left out as unconfirmed; details: activity remaining
[4] = target: STK39(h) (Homo sapiens (Human), UniProt Q9UEW8); assay: KinaseProfiler panel; format: biochemical; details: activity remaining
[5] = target: RIPK2(h) (Homo sapiens (Human), UniProt O43353); assay: KinaseProfiler panel; format: biochemical; parameters: dose or concentration left out as unconfirmed; details: activity remaining
[6] = target: CK2α2(h) (Homo sapiens (Human), UniProt P19784); assay: KinaseProfiler panel; format: biochemical; parameters: dose or concentration left out as unconfirmed; details: activity remaining
[7] = target: Aurora-B(h) (Homo sapiens (Human), UniProt Q96GD4); assay: KinaseProfiler panel; format: biochemical; parameters: dose or concentration left out as unconfirmed; details: activity remaining
[8] = target: CaMKIIγ(h) (Homo sapiens (Human), UniProt Q13555); assay: KinaseProfiler panel; format: biochemical; parameters: dose or concentration left out as unconfirmed; details: activity remaining
[9] = target: DAPK1(h) (Homo sapiens (Human), UniProt P53355); assay: KinaseProfiler panel; format: biochemical; parameters: dose or concentration left out as unconfirmed; details: activity remaining
[10] = target: CaMKK2(h) (Homo sapiens (Human), UniProt Q96RR4); assay: KinaseProfiler panel; format: biochemical; parameters: dose or concentration left out as unconfirmed; details: activity remaining
[11] = target: CK1α(h) (Homo sapiens (Human), UniProt P48729); assay: KinaseProfiler panel; format: biochemical; parameters: dose or concentration left out as unconfirmed; details: activity remaining
[12] = target: LIMK1(h) (Homo sapiens (Human), UniProt P53667); assay: KinaseProfiler panel; format: biochemical; parameters: dose or concentration left out as unconfirmed; details: activity remaining
[13] = target: AAK1 (Homo sapiens (Human), UniProt Q2M2I8); assay: KinaseProfiler radiometric assay (16-043KP); format: biochemical; details: mean of at least two independent experiments
Excerpt: In another aspect, disclosed is a method of inhibiting citron kinase in a sample, comprising contacting the sample with a compound described herein (e.g., a compound of formula (I) or a pharmaceutically acceptable salt thereof), or a pharmaceutical composition described herein (e.g., a pharmaceutical composition comprising a compound of formula (I) or a pharmaceutically acceptable salt thereof), in an amount effective to inhibit citron kinase. In some embodiments, the step of contacting the sample with the compound comprises administering the compound to a subject (e.g., a subject) suffering from cancer. Methods of determining kinase inhibition are well known in the art. For example, kinase activity of an enzyme and the inhibitory capacity of a test compound can be determined by measuring enzyme specific phosphorylation of a substrate. Commercial assays and kits can be employed. For example, kinase inhibition can be determined using a radiometric binding assay, such as using KinaseProfiler™ technology (Eurofins Discovery). This assay method directly detects product formation without the use of modified substrates or coupling enzymes. […]
(§1) The effect of various compounds on the inhibition of other kinases has also been determined. Table 2 reports measured IC50 values; value units are nanomolar inhibition.

[14] = target: PKCβII(h) (Homo sapiens (Human), UniProt P05771); assay: KinaseProfiler panel; format: biochemical; parameters: dose or concentration left out as unconfirmed; details: activity remaining
[15] = target: PAK3(h) (Homo sapiens (Human), UniProt O75914); assay: KinaseProfiler panel; format: biochemical; parameters: dose or concentration left out as unconfirmed; details: activity remaining
[16] = target: IKKβ (Homo sapiens (Human), UniProt O14920); assay: KinaseProfiler radiometric assay (14-485KP); format: biochemical; details: mean of at least two independent experiments
Excerpt: In another aspect, disclosed is a method of inhibiting citron kinase in a sample, comprising contacting the sample with a compound described herein (e.g., a compound of formula (I) or a pharmaceutically acceptable salt thereof), or a pharmaceutical composition described herein (e.g., a pharmaceutical composition comprising a compound of formula (I) or a pharmaceutically acceptable salt thereof), in an amount effective to inhibit citron kinase. In some embodiments, the step of contacting the sample with the compound comprises administering the compound to a subject (e.g., a subject) suffering from cancer. Methods of determining kinase inhibition are well known in the art. For example, kinase activity of an enzyme and the inhibitory capacity of a test compound can be determined by measuring enzyme specific phosphorylation of a substrate. Commercial assays and kits can be employed. For example, kinase inhibition can be determined using a radiometric binding assay, such as using KinaseProfiler™ technology (Eurofins Discovery). This assay method directly detects product formation without the use of modified substrates or coupling enzymes. Test compounds are incubated with kinase, substrate, required cofactors and radioisotope labeled ATP. Following incubation, unreacted radioactive ATP is removed by washing and incorporation of the radiolabeled phosphate into the kinase substrate is assayed to detect phosphoryltransferase activity, which is directly proportional to the amount of phosphorylated substrate. Inhibition of the kinase by a kinase inhibitor prevents phosphorylation of the substrate and thereby limits the incorporation of radiolabeled phosphate. Such an assay is compatible with a microwell assay format, allowing simultaneous determination of IC50 of multiple compounds.
as §1

[17] = target: NanoLuc-CITK (full-length human CITK) (Homo sapiens (Human), UniProt O14578); assay: NanoBRET intracellular target engagement assay; format: cell-based
Protocol: In-cell Kd values were evaluated with a NanoBRET Target Engagement Assay essentially as recommended by the manufacturer (Promega Corporation—for details see https://www.promega.com/resources/technologies/nanoluc-luciferase-enzyme/cellular-target-engagement/).
HEK293T cells were transfected with 5.0 μg/mL sterile NanoLuc-CITK DNA, 5.0 μg/mL Transfection Carrier DNA, and 30 μL/mL FugeneHD® (Promega) in Opti-Mem™ (Thermo) media at a cell density of 250,000 cells/mL. […] 5 μL of the 25× Tracer K10 solution was added to each well. Next, designated inhibitors were prepared from powder as 10 mM DMSO stocks and then further diluted to 10× the final assay concentration in Opti-Mem™. 12-pt dose-response curves were prepared by 3×-serial dilution. […] A 3× Complete Substrate+Inhibitor solution, containing 6 mL of Opti-Mem™, 36 μL of NanoBRET Nano-Glo Substrate, and 12 μL Extracellular NanoLuc Inhibitor was freshly prepared for each plate. 50 μL of the 3× Complete Substrate+Inhibitor solution was added to all wells and the plate was incubated for 2 min with 500 RPM shaking. The bottom of the plates were covered with black plate seals and then measured on a Cytation 5 plate reader (Biotek) with a NanoBRET Filter Cube (Biotek; 450/50 emission & 610LP emission). Background corrected BRET ratios (in mBU) were calculated in Excel and IC50's were subsequently extracted using four-parameter non-linear regression in GraphPad Prism 8.

[18] = target: TTBK1(h) (Homo sapiens (Human), UniProt Q5TCY1); assay: KinaseProfiler panel; format: biochemical; parameters: dose or concentration left out as unconfirmed; details: activity remaining
[19] = target: Wee1(h) (Homo sapiens (Human), UniProt P30291); assay: KinaseProfiler panel; format: biochemical; parameters: dose or concentration left out as unconfirmed; details: activity remaining
[20] = target: SRMS(h) (Homo sapiens (Human), UniProt Q9H3Y6); assay: KinaseProfiler panel; format: biochemical; parameters: dose or concentration left out as unconfirmed; details: activity remaining
SRMS(h), sequence (Q9H3Y6 whole entry): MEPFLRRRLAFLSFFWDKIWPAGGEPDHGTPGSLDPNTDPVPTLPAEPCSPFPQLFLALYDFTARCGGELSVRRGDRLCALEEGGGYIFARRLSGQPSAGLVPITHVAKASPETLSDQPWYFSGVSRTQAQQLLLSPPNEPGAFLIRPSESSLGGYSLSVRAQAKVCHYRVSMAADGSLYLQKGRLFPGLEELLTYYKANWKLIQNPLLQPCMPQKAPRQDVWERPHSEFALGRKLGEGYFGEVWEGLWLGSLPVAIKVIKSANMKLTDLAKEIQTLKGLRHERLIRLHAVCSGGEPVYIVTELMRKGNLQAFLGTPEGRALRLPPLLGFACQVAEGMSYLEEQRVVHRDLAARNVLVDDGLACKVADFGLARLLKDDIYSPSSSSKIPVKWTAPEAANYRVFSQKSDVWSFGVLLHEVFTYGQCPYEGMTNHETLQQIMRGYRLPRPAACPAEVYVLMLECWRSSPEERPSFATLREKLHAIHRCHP

NanoLuc-CITK (full-length human CITK), sequence (O14578 other isoform, or with tags, fused parts or gaps): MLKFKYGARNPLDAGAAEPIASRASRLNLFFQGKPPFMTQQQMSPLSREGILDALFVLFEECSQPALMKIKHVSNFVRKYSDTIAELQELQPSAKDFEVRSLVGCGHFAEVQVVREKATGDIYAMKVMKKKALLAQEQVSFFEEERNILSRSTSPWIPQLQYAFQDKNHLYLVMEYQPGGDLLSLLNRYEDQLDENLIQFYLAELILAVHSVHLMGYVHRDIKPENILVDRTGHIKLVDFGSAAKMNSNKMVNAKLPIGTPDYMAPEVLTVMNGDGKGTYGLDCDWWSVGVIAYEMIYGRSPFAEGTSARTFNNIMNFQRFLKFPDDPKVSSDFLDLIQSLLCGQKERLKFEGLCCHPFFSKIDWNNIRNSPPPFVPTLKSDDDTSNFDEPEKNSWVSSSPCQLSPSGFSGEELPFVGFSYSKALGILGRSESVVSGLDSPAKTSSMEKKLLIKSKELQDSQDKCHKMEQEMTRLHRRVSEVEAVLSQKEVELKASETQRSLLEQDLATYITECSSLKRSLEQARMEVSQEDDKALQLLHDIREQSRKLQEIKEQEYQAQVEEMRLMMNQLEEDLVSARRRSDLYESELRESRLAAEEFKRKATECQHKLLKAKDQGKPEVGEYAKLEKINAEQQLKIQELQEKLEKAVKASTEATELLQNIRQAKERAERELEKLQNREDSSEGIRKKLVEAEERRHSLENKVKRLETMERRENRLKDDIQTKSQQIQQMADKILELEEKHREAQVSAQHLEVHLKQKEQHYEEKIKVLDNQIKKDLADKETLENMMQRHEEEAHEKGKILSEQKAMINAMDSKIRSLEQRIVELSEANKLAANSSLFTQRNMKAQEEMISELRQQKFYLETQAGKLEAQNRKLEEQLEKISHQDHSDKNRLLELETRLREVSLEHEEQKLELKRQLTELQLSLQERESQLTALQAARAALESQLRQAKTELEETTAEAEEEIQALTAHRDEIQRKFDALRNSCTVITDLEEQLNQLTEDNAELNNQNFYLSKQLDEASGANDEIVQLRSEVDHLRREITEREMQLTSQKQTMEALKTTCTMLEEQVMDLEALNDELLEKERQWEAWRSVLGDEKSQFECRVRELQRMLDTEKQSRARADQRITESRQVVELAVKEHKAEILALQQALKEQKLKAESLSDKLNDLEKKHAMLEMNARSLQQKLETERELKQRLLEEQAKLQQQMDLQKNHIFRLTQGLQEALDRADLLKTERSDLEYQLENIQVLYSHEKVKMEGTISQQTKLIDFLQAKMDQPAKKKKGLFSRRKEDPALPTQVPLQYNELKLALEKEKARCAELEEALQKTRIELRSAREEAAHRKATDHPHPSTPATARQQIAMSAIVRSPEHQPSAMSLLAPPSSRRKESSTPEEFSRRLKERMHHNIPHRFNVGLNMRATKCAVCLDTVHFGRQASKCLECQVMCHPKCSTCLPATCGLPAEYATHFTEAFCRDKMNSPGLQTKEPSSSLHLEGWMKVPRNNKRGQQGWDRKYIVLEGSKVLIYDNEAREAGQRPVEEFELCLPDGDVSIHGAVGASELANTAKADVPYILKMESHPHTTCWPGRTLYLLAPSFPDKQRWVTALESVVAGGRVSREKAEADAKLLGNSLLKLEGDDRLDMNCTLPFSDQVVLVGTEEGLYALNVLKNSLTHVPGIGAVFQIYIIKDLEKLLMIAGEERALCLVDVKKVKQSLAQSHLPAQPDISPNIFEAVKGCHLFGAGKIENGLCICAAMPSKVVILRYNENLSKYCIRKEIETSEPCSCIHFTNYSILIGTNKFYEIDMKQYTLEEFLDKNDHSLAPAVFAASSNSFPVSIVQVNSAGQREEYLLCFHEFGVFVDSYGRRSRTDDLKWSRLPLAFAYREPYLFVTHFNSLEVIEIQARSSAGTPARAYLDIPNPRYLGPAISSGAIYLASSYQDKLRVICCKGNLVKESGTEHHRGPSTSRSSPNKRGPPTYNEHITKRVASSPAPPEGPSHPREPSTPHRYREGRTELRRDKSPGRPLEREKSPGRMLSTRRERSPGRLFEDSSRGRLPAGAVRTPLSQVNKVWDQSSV
CaMKIIγ(h), sequence (Q13555 whole entry): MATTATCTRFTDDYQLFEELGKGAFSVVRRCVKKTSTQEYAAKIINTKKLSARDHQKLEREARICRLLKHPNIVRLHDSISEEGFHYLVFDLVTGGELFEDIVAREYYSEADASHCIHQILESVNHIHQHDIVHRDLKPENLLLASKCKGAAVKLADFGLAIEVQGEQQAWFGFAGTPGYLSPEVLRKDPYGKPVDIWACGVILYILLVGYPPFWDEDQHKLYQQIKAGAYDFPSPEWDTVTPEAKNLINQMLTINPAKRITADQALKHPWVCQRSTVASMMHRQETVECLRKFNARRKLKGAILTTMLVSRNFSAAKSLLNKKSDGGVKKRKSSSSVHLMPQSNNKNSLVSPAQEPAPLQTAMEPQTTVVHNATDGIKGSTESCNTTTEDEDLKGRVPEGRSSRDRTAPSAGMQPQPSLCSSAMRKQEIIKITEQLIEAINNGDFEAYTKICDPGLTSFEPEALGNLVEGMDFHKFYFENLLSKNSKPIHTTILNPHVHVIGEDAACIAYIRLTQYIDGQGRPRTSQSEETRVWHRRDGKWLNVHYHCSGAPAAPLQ
CK1α(h), sequence (P48729 whole entry): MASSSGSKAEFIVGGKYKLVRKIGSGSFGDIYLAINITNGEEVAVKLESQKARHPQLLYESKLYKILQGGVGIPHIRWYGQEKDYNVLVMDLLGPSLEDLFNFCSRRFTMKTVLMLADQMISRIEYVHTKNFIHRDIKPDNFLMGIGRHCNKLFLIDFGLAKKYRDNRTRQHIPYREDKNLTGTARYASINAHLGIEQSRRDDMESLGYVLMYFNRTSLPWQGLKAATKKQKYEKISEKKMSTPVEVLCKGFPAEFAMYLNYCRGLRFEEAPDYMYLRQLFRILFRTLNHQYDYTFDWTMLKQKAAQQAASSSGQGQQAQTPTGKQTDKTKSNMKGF
CK2α2(h), sequence (P19784 whole entry): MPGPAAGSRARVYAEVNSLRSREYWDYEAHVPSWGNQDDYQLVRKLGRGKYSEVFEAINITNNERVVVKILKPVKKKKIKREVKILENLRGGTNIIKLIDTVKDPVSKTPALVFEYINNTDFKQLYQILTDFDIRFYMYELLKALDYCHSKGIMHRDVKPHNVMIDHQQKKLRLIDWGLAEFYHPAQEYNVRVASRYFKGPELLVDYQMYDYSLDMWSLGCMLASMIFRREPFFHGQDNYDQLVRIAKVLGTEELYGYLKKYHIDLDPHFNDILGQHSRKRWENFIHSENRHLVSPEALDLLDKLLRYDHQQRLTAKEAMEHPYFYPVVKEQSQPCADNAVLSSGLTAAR
LIMK1(h), sequence (P53667 whole entry): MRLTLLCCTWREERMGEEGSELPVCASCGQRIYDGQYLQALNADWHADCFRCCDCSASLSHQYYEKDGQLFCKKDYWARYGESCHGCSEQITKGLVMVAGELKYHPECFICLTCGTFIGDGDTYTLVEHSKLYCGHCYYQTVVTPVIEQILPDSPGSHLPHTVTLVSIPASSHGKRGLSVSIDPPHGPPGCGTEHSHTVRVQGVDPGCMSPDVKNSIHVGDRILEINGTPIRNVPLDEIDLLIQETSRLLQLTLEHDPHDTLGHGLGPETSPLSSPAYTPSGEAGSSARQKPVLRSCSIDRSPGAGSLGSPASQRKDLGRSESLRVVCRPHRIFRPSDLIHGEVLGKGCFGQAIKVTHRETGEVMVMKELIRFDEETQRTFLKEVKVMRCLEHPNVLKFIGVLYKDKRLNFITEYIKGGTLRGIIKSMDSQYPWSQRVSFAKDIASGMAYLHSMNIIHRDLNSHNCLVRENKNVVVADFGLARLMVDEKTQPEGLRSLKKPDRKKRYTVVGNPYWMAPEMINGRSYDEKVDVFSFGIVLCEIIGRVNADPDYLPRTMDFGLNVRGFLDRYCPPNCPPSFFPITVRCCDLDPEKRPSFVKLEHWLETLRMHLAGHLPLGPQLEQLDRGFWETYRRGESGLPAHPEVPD
CDK5/p35(h), sequence (Q00535 whole entry): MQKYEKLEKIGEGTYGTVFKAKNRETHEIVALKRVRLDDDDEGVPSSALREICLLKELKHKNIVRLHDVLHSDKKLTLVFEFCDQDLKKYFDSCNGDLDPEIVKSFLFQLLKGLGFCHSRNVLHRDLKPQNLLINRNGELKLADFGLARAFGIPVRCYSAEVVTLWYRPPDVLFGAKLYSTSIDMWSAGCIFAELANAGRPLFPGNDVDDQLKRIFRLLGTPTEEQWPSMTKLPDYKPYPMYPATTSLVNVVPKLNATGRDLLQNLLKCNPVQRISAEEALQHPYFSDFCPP
CDK5/p35(h), sequence (Q15078 2-307 partner): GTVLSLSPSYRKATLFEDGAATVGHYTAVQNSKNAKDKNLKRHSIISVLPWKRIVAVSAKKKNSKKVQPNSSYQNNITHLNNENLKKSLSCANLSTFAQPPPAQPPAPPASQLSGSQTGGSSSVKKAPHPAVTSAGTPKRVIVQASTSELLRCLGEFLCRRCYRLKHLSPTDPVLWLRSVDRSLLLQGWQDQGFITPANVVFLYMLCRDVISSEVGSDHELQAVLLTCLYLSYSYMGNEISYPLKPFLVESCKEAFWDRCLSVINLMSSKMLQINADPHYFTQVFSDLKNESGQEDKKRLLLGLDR

For Cc1cc2c(-c3ccc(NC(=O)[C@H](N)CC(C)(C)C)cc3C)ccnc2[nH]1 [Compound F-90, (2R)-2-Amino-4,4-dimethyl-N-[3-methyl-4-(2-methyl-1H-pyrrolo[2,3-b]pyridin-4-yl)phenyl]pentanamide], the “% Activity” value [1] was 74%, the “% Activity” value [2] was 79% and the “% Activity” value [3] was 106%. The “% Activity” value [4] was 102%, the “% Activity” value [5] was 97% and the “% Activity” value [6] was 115%. The “% Activity” value [7] was 109%, the “% Activity” value [8] was 106% and the “% Activity” value [9] was 82%. The “% Activity” value [10] was 96%, the “% Activity” value [11] was 97% and the “% Activity” value [12] was 70%. The IC50 [13] was 212 nM, the “% Activity” value [14] was 87% and the “% Activity” value [15] was 89%. For the same compound, the IC50 [16] was over 3000 nM, the Kd [17] was 9.9 nM and the IC50 ([17]; HEK293T cells transfected with NanoLuc-CITK, Tracer K10 1 μM, 2 hours) was 53 nM. The “% Activity” value [18] was 96%, the “% Activity” value [19] was 94% and the “% Activity” value [20] was 86%.
